The values below come from ChEMBL document CHEMBL5303573, “Mapping human microbiome drug metabolism by gut bacteria and their genes” (Nature, 2019).

The conditions of data set [1]: parabacteroides distasonis, 12 h, 2 µM.
Description: The drug is tested on Parabacteroides distasonis strain: ATCC8503 for biotransformation. The drug concentrations were measured before and after a 12-h incubation by liquid-chromatography-coupled mass spectrometry (LC–MS)
Data set [2] can be described thus: The drug is tested on Collinsella intestinalis strain: DSM13280 for biotransformation. The drug concentrations were measured before and after a 12-h incubation by liquid-chromatography-coupled mass spectrometry (LC–MS). The settings on record: 2 µM.
A short description of data set [3]: The drug is tested on Ruminococcus torques strain: ATCC27756 for biotransformation. The drug concentrations were measured before and after a 12-h incubation by liquid-chromatography-coupled mass spectrometry (LC–MS). The data set is classed as ADME. The arrangement: dose 2 uM, timepoint 0 vs 12 hours. The settings on record: 2 µM.
A short description of data set [4]: The drug is tested on Clostridium sporogenes strain: ATCC15579 for biotransformation. The drug concentrations were measured before and after a 12-h incubation by liquid-chromatography-coupled mass spectrometry (LC–MS). The settings on record: 2 µM.
Data set [5] can be described thus: The drug is tested on Subdoligranulum variabile strain: DSM15176 for biotransformation. The drug concentrations were measured before and after a 12-h incubation by liquid-chromatography-coupled mass spectrometry (LC–MS). The settings on record: 2 µM.
For data set [6] the following is noted: anaerostipes sp., 12 h, 2 µM.
Description: The drug is tested on Anaerostipes sp. strain: fecal isolate for biotransformation. The drug concentrations were measured before and after a 12-h incubation by liquid-chromatography-coupled mass spectrometry (LC–MS)
Data set [7] in a line: The drug is tested on Clostridium symbiosum strain: ATCC14940 for biotransformation. The drug concentrations were measured before and after a 12-h incubation by liquid-chromatography-coupled mass spectrometry (LC–MS). Particulars: 2 µM.
Data set [8] can be described thus: The drug is tested on Bacteroides xylanisolvens strain: DSM18836 for biotransformation. The drug concentrations were measured before and after a 12-h incubation by liquid-chromatography-coupled mass spectrometry (LC–MS). The settings on record: 2 µM.
Data set [9] in a line: The drug is tested on Bacteroides sp. WH2 strain: WH2 for biotransformation. The drug concentrations were measured before and after a 12-h incubation by liquid-chromatography-coupled mass spectrometry (LC–MS). Particulars: bacteroides sp. wh2, 12 h, 2 µM.
Data set [10] can be described thus: The drug is tested on Bacteroides uniformis strain: ATCC8492 for biotransformation. The drug concentrations were measured before and after a 12-h incubation by liquid-chromatography-coupled mass spectrometry (LC–MS). Particulars: 2 µM.
For data set [11] the following is noted: bacteroides thetaiotaomicron, 12 h, 2 µM.
Description: The drug is tested on Bacteroides thetaiotaomicron strain: 7330 for biotransformation. The drug concentrations were measured before and after a 12-h incubation by liquid-chromatography-coupled mass spectrometry (LC–MS)
The conditions of data set [12]: bacteroides eggerthii, 12 h, 2 µM.
Description: The drug is tested on Bacteroides eggerthii strain: DSM20697 for biotransformation. The drug concentrations were measured before and after a 12-h incubation by liquid-chromatography-coupled mass spectrometry (LC–MS)
The nature of data set [13]: The drug is tested on Eubacterium hallii strain: DSM3353 for biotransformation. The drug concentrations were measured before and after a 12-h incubation by liquid-chromatography-coupled mass spectrometry (LC–MS). The settings on record: anaerobutyricum hallii, 2 µM.
A short description of data set [14]: The drug is tested on Clostridium asparagiforme strain: DSM15981 for biotransformation. The drug concentrations were measured before and after a 12-h incubation by liquid-chromatography-coupled mass spectrometry (LC–MS). The data set is classed as ADME. The arrangement: dose 2 uM, timepoint 0 vs 12 hours. Particulars: enterocloster asparagiformis, 2 µM.
The conditions of data set [15]: bacteroides stercoris, 12 h, 2 µM.
Description: The drug is tested on Bacteroides stercoris strain: ATCC43183 for biotransformation. The drug concentrations were measured before and after a 12-h incubation by liquid-chromatography-coupled mass spectrometry (LC–MS)
For data set [16] the following is noted: limosilactobacillus reuteri cf48-3a, 12 h, 2 µM.
Description: The drug is tested on Lactobacillus reuteri CF48-3A strain: BEI HM-102 for biotransformation. The drug concentrations were measured before and after a 12-h incubation by liquid-chromatography-coupled mass spectrometry (LC–MS)
Data set [17] in a line: The drug is tested on Bacteroides coprophilus strain: DSM18228 for biotransformation. The drug concentrations were measured before and after a 12-h incubation by liquid-chromatography-coupled mass spectrometry (LC–MS). Particulars: 2 µM.
A short description of data set [18]: The drug is tested on Anaerotruncus colihominis strain: DSM17241 for biotransformation. The drug concentrations were measured before and after a 12-h incubation by liquid-chromatography-coupled mass spectrometry (LC–MS). Particulars: 2 µM.
Data set [19] is described as follows: The drug is tested on Bacteroides vulgatus strain: ATCC8482 for biotransformation. The drug concentrations were measured before and after a 12-h incubation by liquid-chromatography-coupled mass spectrometry (LC–MS). Particulars: phocaeicola vulgatus, 2 µM.
The nature of data set [20]: The drug is tested on Bacteroides dorei strain: DSM17855 for biotransformation. The drug concentrations were measured before and after a 12-h incubation by liquid-chromatography-coupled mass spectrometry (LC–MS). The settings on record: phocaeicola dorei, 2 µM.

In the case of `CC(=O)O[C@H]1C(=O)[C@@]2(C)[C@H]([C@H](OC(=O)c3ccccc3)[C@]3(O)C[C@H](OC(=O)[C@H](O)[C@@H](NC(=O)c4ccccc4)c4ccccc4)C(C)=C1C3(C)C)[C@]1(OC(C)=O)CO[C@@H]1C[C@@H]2O` [PACLITAXEL], the “Bacterial Biotransformation” value in data set [1], in data set [2], in [3], in data set [4], in [5] and in [6] was “Compound NOT metabolized” each time. Moreover, the “Bacterial Biotransformation” value is on record as “Compound NOT metabolized” in data set [7]; “Compound metabolized” in data set [8]; “Compound NOT metabolized” in [9]; “Compound metabolized” in data set [10]; “Compound NOT metabolized” in data set [11]; “Compound NOT metabolized” in [12]. The “Bacterial Biotransformation” value in data set [13], in data set [14], in data set [15], in data set [16], in data set [17] and in [18] was “Compound NOT metabolized” each time.
As for `CC(C)(C)NC[C@H](O)COc1ccccc1C1CCCC1.CC(C)(C)NC[C@H](O)COc1ccccc1C1CCCC1.O=S(=O)(O)O` [PENBUTOLOL SULFATE], the “Bacterial Biotransformation” value in data set [1], in data set [2], in [3], in data set [4], in [5] and in data set [6] was “Compound NOT metabolized” each time. Further, the “Bacterial Biotransformation” value in [7] is reported as “Compound NOT metabolized”; in data set [8], “Compound NOT metabolized”; in [9] it was “Compound NOT metabolized”; in data set [10], “Compound metabolized”; in data set [11], “Compound NOT metabolized”; in data set [12] it was “Compound NOT metabolized”. Further, the “Bacterial Biotransformation” value is given as “Compound NOT metabolized” in data set [13]; “Compound NOT metabolized” in [14]; “Compound NOT metabolized” in data set [15]; “Compound metabolized” in [19]; “Compound NOT metabolized” in [16]; “Compound NOT metabolized” in data set [18].
Consider `CC12CC3CC(C)(C1)CC(N)(C3)C2` [MEMANTINE], for which the “Bacterial Biotransformation” value in data set [1], in data set [2], in data set [3], in data set [4], in data set [5] and in data set [6] was “Compound NOT metabolized” each time. Further, the “Bacterial Biotransformation” value in data set [7], in [9], in data set [10], in [11], in [12] and in data set [13] was “Compound NOT metabolized” in each case. The “Bacterial Biotransformation” value in [20], in data set [14], in data set [15], in data set [19], in [17] and in [18] was “Compound NOT metabolized” throughout.
On to `COc1c2occc2cc2ccc(=O)oc12` [METHOXSALEN], for which the “Bacterial Biotransformation” value in data set [1] is recorded as “Compound metabolized”; in data set [3] it was “Compound NOT metabolized”; in [4] it was “Compound metabolized”; in data set [5] it was “Compound NOT metabolized”; in data set [6], “Compound metabolized”; in data set [7], “Compound metabolized”. The “Bacterial Biotransformation” value in [8], in [10], in data set [12], in [13], in data set [20] and in [14] was “Compound metabolized” in each case. Moreover, the “Bacterial Biotransformation” value in [16] and in data set [18] was “Compound NOT metabolized” throughout.
As to `CN(C)C(=O)C(CCN1CCC(O)(c2ccc(Cl)cc2)CC1)(c1ccccc1)c1ccccc1` [LOPERAMIDE], the “Bacterial Biotransformation” value is “Compound metabolized” in data set [1]; “Compound NOT metabolized” in data set [3]; “Compound metabolized” in [4]; “Compound NOT metabolized” in data set [5]; “Compound NOT metabolized” in data set [6]; “Compound NOT metabolized” in data set [7]. Besides, the “Bacterial Biotransformation” value in [8] is reported as “Compound metabolized”; in [9], “Compound NOT metabolized”; in [10], “Compound metabolized”; in [12], “Compound metabolized”; in data set [13], “Compound NOT metabolized”; in data set [20] it was “Compound metabolized”. Besides, the “Bacterial Biotransformation” value is given as “Compound NOT metabolized” in [14]; “Compound metabolized” in [15]; “Compound metabolized” in [19]; “Compound NOT metabolized” in data set [16]; “Compound metabolized” in [17]; “Compound NOT metabolized” in [18].
